PMC8094182, “8-Substituted Triazolobenzodiazepines: In Vitro and In Vivo Pharmacology in Relation to Structural Docking at the α1 Subunit-Containing GABAA Receptor” (Frontiers in Pharmacology, 2021)

Tests used:
[1] = molecular target: T1, rat α5β3γ2 GABAA receptor (α5GABAA) (Rattus norvegicus, UniProt P18508+P19969); assay: two-electrode voltage clamp, Xenopus oocytes, potentiation of GABA EC3 current; format: cell-based; settings: read-out: α5
T1 construct: gene Gabra5; Full-length subunits co-expressed; pentamer; with Gamma-aminobutyric acid receptor subunit beta-3
T1 sequence (P19969 26-464): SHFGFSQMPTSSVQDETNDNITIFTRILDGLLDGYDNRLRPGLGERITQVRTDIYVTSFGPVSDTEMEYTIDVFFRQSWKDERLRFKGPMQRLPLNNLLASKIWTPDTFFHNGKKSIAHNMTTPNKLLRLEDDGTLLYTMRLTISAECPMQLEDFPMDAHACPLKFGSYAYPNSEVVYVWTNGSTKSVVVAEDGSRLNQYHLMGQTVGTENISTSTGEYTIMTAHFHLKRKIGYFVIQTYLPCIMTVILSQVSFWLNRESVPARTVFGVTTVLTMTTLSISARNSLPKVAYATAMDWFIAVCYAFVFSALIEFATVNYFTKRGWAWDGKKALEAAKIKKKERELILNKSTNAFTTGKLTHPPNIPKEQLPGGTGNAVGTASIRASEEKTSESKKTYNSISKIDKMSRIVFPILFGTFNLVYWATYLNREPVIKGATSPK
T1 sequence (P18508 39-466): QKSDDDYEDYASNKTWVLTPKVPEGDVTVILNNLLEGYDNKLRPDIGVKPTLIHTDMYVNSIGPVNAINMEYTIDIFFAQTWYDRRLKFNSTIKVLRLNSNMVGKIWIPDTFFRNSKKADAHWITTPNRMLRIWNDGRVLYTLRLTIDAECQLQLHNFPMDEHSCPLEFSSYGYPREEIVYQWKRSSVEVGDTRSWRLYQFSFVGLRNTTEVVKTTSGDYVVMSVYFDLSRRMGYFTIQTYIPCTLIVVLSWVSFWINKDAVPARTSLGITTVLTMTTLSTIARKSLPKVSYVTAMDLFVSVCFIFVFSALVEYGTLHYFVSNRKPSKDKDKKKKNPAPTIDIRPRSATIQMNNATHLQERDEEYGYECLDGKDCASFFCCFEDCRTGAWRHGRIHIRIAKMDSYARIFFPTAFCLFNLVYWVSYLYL
T1 sequence (P63079 26-473 partner): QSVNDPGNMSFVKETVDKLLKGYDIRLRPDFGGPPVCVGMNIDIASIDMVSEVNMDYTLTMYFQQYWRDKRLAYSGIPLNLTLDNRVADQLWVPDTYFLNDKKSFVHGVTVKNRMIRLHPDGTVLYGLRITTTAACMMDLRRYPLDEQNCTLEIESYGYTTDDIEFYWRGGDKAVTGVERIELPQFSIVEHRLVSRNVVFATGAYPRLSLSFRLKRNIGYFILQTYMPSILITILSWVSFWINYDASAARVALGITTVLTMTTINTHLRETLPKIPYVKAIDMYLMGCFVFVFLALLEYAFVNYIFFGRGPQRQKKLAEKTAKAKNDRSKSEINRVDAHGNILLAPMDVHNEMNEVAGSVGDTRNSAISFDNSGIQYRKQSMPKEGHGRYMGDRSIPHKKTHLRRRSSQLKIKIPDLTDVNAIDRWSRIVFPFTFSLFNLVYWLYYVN
From the text: two-electrode voltage clamp, Xenopus oocytes, potentiation of GABA EC3 current on rat α5β3γ2 GABAA receptor (α5GABAA)

[2] = molecular target: T2, rat α1β3γ2 GABAA receptor (α1GABAA) (Rattus norvegicus, UniProt P18508+P62813); assay: as above; format: cell-based; settings: read-out: α1
T2 construct: gene Gabra1; Full-length subunits co-expressed; pentamer; with Gamma-aminobutyric acid receptor subunit beta-3
T2 sequence (P62813 28-455): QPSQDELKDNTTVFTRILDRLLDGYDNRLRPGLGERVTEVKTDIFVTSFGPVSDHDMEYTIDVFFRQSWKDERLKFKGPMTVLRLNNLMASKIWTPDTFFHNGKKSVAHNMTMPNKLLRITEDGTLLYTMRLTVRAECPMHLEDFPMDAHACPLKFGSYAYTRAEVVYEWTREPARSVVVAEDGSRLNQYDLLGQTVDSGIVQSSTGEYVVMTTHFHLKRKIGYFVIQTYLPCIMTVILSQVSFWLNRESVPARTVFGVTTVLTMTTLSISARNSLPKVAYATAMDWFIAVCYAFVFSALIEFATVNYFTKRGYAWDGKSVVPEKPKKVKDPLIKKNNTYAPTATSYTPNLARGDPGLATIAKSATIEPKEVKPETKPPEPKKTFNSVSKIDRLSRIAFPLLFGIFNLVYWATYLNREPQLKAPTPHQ
T2 sequence (P18508 39-466): as the sequence (P18508 39-466) above
T2 sequence (P63079 26-473 partner): as the sequence (P63079 26-473 partner) above
From the text: two-electrode voltage clamp, Xenopus oocytes, potentiation of GABA EC3 current on rat α1β3γ2 GABAA receptor (α1GABAA)

[3] = molecular target: T2, rat α1β3γ2 GABAA receptor (α1GABAA); assay: [3H]flunitrazepam displacement, HEK […] membranes, filtration; format: binding; settings: read-out: α1
[4] = molecular target: T1, rat α5β3γ2 GABAA receptor (α5GABAA); assay: as above; format: binding; settings: read-out: α5
[5] = molecular target: T3, rat α3β3γ2 GABAA receptor (α3GABAA) (Rattus norvegicus, UniProt P18508+P20236); assay: two-electrode voltage clamp, Xenopus oocytes, potentiation of GABA EC3 current; format: cell-based; settings: read-out: α3
T3 construct: gene Gabra3; Full-length subunits co-expressed; pentamer; with Gamma-aminobutyric acid receptor subunit beta-3
T3 sequence (P20236 29-493): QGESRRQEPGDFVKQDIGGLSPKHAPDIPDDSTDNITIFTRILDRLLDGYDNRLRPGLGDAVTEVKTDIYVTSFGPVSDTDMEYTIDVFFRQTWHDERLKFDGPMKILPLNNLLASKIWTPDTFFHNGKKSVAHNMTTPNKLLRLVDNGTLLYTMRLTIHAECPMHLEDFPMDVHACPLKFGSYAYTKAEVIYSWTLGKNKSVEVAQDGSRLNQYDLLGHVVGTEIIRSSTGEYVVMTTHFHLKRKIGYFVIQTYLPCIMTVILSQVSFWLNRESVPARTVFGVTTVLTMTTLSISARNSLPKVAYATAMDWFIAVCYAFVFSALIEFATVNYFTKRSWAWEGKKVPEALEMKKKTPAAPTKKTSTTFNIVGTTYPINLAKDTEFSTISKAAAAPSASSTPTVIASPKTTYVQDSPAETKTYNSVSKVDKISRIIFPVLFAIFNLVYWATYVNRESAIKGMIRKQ
T3 sequence (P18508 39-466): as the sequence (P18508 39-466) above
T3 sequence (P63079 26-473 partner): as the sequence (P63079 26-473 partner) above
From the text: two-electrode voltage clamp, Xenopus oocytes, potentiation of GABA EC3 current on rat α3β3γ2 GABAA receptor (α3GABAA)

[6] = molecular target: T3, rat α3β3γ2 GABAA receptor (α3GABAA); assay: [3H]flunitrazepam displacement, HEK […] membranes, filtration; format: binding; settings: read-out: α3
[7] = molecular target: T4, rat α2β3γ2 GABAA receptor (α2GABAA) (Rattus norvegicus, UniProt P18508+P23576); assay: as above; format: binding; settings: read-out: α2
T4 construct: gene Gabra2; Full-length subunits co-expressed; pentamer; with Gamma-aminobutyric acid receptor subunit beta-3
T4 sequence (P23576 29-451): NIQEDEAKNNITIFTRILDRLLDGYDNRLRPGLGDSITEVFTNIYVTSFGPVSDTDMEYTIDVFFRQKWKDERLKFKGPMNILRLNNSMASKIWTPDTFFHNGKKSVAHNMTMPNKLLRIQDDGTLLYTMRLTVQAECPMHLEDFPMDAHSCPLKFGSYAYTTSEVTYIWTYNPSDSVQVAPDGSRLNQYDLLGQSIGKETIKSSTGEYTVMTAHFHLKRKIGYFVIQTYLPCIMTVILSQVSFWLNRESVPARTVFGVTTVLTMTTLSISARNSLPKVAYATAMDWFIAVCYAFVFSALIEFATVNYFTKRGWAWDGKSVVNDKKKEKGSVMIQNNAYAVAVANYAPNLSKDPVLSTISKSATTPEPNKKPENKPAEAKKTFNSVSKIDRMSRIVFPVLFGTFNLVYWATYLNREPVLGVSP
T4 sequence (P18508 39-466): as the sequence (P18508 39-466) above
T4 sequence (P63079 26-473 partner): as the sequence (P63079 26-473 partner) above

[8] = molecular target: T4, rat α2β3γ2 GABAA receptor (α2GABAA); assay: two-electrode voltage clamp, Xenopus oocytes, potentiation of GABA EC3 current; format: cell-based; settings: read-out: α2
From the text: two-electrode voltage clamp, Xenopus oocytes, potentiation of GABA EC3 current on rat α2β3γ2 GABAA receptor (α2GABAA)

C#Cc1ccc2c(c1)C(c1ccccc1Cl)=NCc1nnc(C)n1-2 [XLi-JY-DMH, 6-(2-chlorophenyl)-8-ethynyl-1-methyl-4H-benzo [f][1,2,4]triazolo[4,3-a][1,4]diazepine]
EC50 [1]: 14.9 nM
EC50 [2]: 35.2 nM
Ki [3]: 7.7 ± 5.5 nM
Ki [4]: 3.8 ± 1 nM
EC50 [5]: 47 nM
Ki [6]: 4.2 ± 1.6 nM
Ki [7]: 7.2 ± 3 nM
EC50 [8]: 20.7 nM
